# Reference: patent publication US20210278402A1, “METHOD FOR TESTING OF ANTIBIOTIC SUSCEPTIBILITY IN MICROORGANISMS” (MODULE INNOVATIONS PRIVATE LIMITED, priority 2018, published 2021)
# Like-named read-outs stand apart in the source and are kept apart here.
# Tests used:
# [1] = test system: K. pneumoniae; assay: Antibiotic susceptibility testing by the method of the present invention (AuNP-GOx-Ab nanoprobes, absorbance at 545 nm); type: cell-based; details: for MIC: Klebsiella pneumoniae, MIC = dilution showing the criterion % reduction compared to no antibiotics (34% levofloxacin, 23% amikacin), read-out: MIC obtained with the diagnostic method assay; for Interpretation of results of the present method: Patient two urine sample infected with K. pneumoniae, antibiotic at EUCAST breakpoint concentration of Table 1
# Protocol: (§1) 250 μL of urine sample was mixed with 250 μL of 2× Mueller-Hinton broth in autoclaved Eppendorf tubes. Respective concentrations of antibiotics as recited in Table 1 were added in each tubes along with one tube without antibiotic which served as a control for monitoring the growth of bacteria. 7-10 μL of the nanoprobes (AuNP-GOx-Ab) prepared in the Example 2 above was added to the mixture and allowed to incubate at 37° C. for 90 minutes to allow growth of bacteria. The solution was then passed through a membrane filter with a pore size of about 450 nm diameter to separate the bacteria bound to the nanoprobes from the unbound ones. The bacteria bound nanoprobes (nanoprobe-bacteria complex) captured on the membrane surface were then recovered by injecting 250 μL of sodium acetate buffer (10 mM, pH 5.1) from the opposite direction.
# (§2) 250 μL of the recovered bacteria-nanoprobe complexes were then incubated at 37° C. for 10 minutes with 50 μL glucose solution (final concentration 100 mM) for production of hydrogen peroxide. After 10 minutes, 150 μL of seed solution containing about 16 nM gold nanoparticles having about 5 nm size and 150 μL of 1.25 mM HAuCl4 solution was added to induce growth of the seed particles and left for 20 minutes to allow growth of the seed particle. Finally, the growth of seed nanoparticles and the intensity of colour formed were determined by recording an absorption spectrum for each sample. FIG. 8(a) provides graphic representation of UV-Visible spectra for antibiotic sensitivity test of patient urine samples with different antibiotics, according to an embodiment of the present invention.
# The antibacterial susceptibility test of patient two urine sample containing K. pneumoniae towards the antibiotics ampicillin, gentamicin, levofloxacin and imipenem was performed as mentioned above.
# (§3) MIC determination protocol was tested on other antibiotics-bacteria combinations as well and percent reduction criterion was determined for each pair from repeated tests.
# [2] = test system: K. pneumoniae; assay: CLSI reference method of microdilution; type: cell-based; details: for MIC: Klebsiella pneumoniae; for Interpretation by Microdilution: EUCAST breakpoints
# [3] = test system: E. coli; assay: Antibiotic susceptibility testing by the method of the present invention (AuNP-GOx-Ab nanoprobes, absorbance at 545 nm); type: cell-based; details: for Interpretation of results of the present method: Patient two urine sample infected with E. coli (10^4 CFU/mL), antibiotic at EUCAST breakpoint concentration of Table 1
# Protocol: as §1
# as §2, with “sample.” for “sample. FIG. 8(a) provides graphic representation of UV-Visible spectra for antibiotic sensitivity test of patient urine samples with different antibiotics, according to an embodiment of the present invention.”
# as §3
# [4] = test system: E. coli; assay: CLSI reference method of microdilution; type: cell-based; details: for MIC: Escherichia coli
# [5] = test system: K. pneumoniae; assay: VITEK automated susceptibility test; type: cell-based; details: for MIC: Klebsiella pneumoniae, patient two urine sample infected with K. pneumoniae, read-out: MIC reported by VITEK
# Description: (§4) The AST market has several products based on the method they employ for testing that include automated systems, discs, MIC strips and media. Most extensively used method to determine antibiotic susceptibility involve culture tests based on the phenotypic growth of the bacteria, which require three days to arrive at the conclusion (Puttaswamy S. et al., 2018). Although culture-based growth methods are the most widely used systems for AST, a few sophisticated high-end labs and hospitals employ automated test machines such as Vitek 2.0 from Biomeriux Technologies, Phoenix from BD etc. These instruments work on the measurement of light attenuation by optical scanner for growth/no growth of bacteria in micro-wells with different antibiotics.
# [6] = test system: P. aeruginosa; assay: CLSI reference method of microdilution; type: cell-based; details: for MIC: Pseudomonas aeruginosa, patient two sample infected with P. aeruginosa, read-out: MIC reported by Microdilution
# [7] = test system: E. coli; assay: VITEK automated susceptibility test; type: cell-based; details: for MIC: Escherichia coli, read-out: MIC reported by VITEK
# Description: as §4
# [8] = test system: P. aeruginosa; assay: VITEK automated susceptibility test; type: cell-based; details: for MIC: Pseudomonas aeruginosa, patient two sample infected with P. aeruginosa, read-out: MIC reported by VITEK
# Description: as §4
# [9] = test system: E. faecalis; assay: CLSI reference method of microdilution; details: for MIC: Enterococcus faecalis, read-out: MIC reported by Microdilution
# [10] = test system: E. faecalis; assay: Antibiotic susceptibility testing by the method of the present invention (AuNP-GOx-Ab nanoprobes, absorbance at 545 nm); type: cell-based; details: Patient two sample infected with E. faecalis, antibiotic at EUCAST breakpoint concentration of Table 1
# Protocol: as §1
# (§5) 250 μL of the recovered bacteria-nanoprobe complexes were then incubated at 37° C. for 10 minutes with 50 μL glucose solution (final concentration 100 mM) for production of hydrogen peroxide. […] Finally, the growth of seed nanoparticles and the intensity of colour formed were determined by recording an absorption spectrum for each sample. […]
# [11] = test system: multi-drug resistant P. aeruginosa; assay: as above; type: cell-based; details: Patient two sample infected with multi-drug resistant P. aeruginosa, antibiotic at EUCAST breakpoint concentration of Table 1
# Protocol: as §1, §5
# [12] = glucose 100 mM, 37° C., 10 minutes
# Protocol: Varying concentrations of GOx, namely, 6 mU, 10 mU and 30 mU and glucose (100 mM) were incubated at 37° C. for 10 minutes and the hydrogen peroxide produced was determined using a H2O2 assay kit (MAK165-SIGMA-ALDRICH).
# [13] = Clinical isolate K. pneumoniae, read-out: MIC obtained with CLSI reference method of microdilution
# [14] = patient two urine sample infected with K. pneumoniae, read-out: MIC reported by Microdilution
# [15] = Patient two urine sample infected with K. pneumoniae
# [16] = Patient one urine sample infected with E. coli
# [17] = patient two urine sample infected with E. coli
# [18] = Patient two sample infected with P. aeruginosa
molecule,measurement,setting,value
NCC[C@H](O)C(=O)N[C@@H]1C[C@H](N)[C@@H](O[C@H]2O[C@H](CN)[C@@H](O)[C@H](O)[C@H]2O)[C@H](O)[C@H]1O[C@H]1O[C@H](CO)[C@@H](O)[C@H](N)[C@H]1O [Amikacin],Interpretation by diagnostic method,[1]; Clinical isolate K. pneumoniae,Resistant
same,MIC,[1]; Clinical isolate K. pneumoniae,128 µg/mL
same,Interpretation by CLSI reference method of microdilution,[2]; Clinical isolate K. pneumoniae,Resistant
same,MIC,[2]; [13],128 µg/mL
CC1(C)S[C@@H]2[C@H](NC(=O)[C@H](N)c3ccccc3)C(=O)N2[C@H]1C(=O)O [Ampicillin],Interpretation of results of the present method,[3],Sensitive
same,Interpretation of results of the present method,[3]; listed as ampicillin,sensitive
same,Interpretation of results of the present method,[1],Resistant
same,Interpretation of results of the present method,[1]; listed as ampicillin,resistant
same,Interpretation by Microdilution,"[4]; Patient two urine sample infected with E. coli, EUCAST breakpoints",Sensitive
same,MIC,[2]; [14],256 µg/mL
same,Interpretation by Microdilution,[2]; [15],Resistant
same,MIC,[5],> 16 µg/mL
same,Interpretation by VITEK,[5]; [15],Resistant
C[C@@H](O)[C@H]1C(=O)N2C(C(=O)O)=C(SCCN=CN)C[C@H]12 [Imipenem],MIC,"[3]; Escherichia coli, Clinical isolate E. coli, MIC = dilution showing the criterion % reduction compared to no antibiotics (55% for imipenem), read-out: MIC obtained with the diagnostic method assay",0.125 µg/mL
same,MIC,"[4]; Clinical isolate E. coli, read-out: MIC obtained with CLSI reference method of microdilution",0.25 µg/mL
same,MIC,"[4]; patient one urine sample infected with E. coli, read-out: MIC reported by Microdilution",0.25 µg/mL
same,MIC,[2]; [14],0.125 µg/mL
same,MIC,[6],≥ 32 µg/mL
same,MIC,[7]; patient one urine sample infected with E. coli,≤ 0.25 µg/mL
same,MIC,[5],≤ 0.25 µg/mL
same,MIC,[8],≥ 16 µg/mL
same,MIC,[9],0.5 µg/mL
C[C@H]1COc2c(N3CCN(C)CC3)c(F)cc3c(=O)c(C(=O)O)cn1c23 [Levofloxacin],MIC (concentration at which signal intensity shows 34% reduction against the control),"[3]; E. coli as printed in text, present method, 34% reduction criterion",16 µg/mL
same,MIC,[1]; Clinical isolate K. pneumoniae,16 µg/mL
same,MIC,"[4]; patient two urine sample infected with E. coli, read-out: MIC reported by Microdilution",64 µg/mL
same,MIC reported by Microdilution,[4]; [16],64 µg/mL
same,MIC,[2]; [13],16 µg/mL
same,MIC,[6],≥ 32 µg/mL
same,MIC,[7]; [17],≥ 8 µg/mL
same,MIC reported by VITEK,[7]; [16],>=8 μg/mL
same,MIC,[8],≥ 8 µg/mL
O=C1CN(/N=C/c2ccc([N+](=O)[O-])o2)C(=O)N1 [Nitrofurantoin],MIC,[7]; [17],≤ 32 µg/mL
CN[C@H](CC(C)C)C(=O)N[C@H]1C(=O)N[C@@H](CC(N)=O)C(=O)N[C@H]2C(=O)N[C@H]3C(=O)N[C@H](C(=O)N[C@H](C(=O)O)c4cc(O)cc(O)c4-c4cc3ccc4O)[C@H](O)c3ccc(c(Cl)c3)Oc3cc2cc(c3O[C@@H]2O[C@H](CO)[C@@H](O)[C@H](O)[C@H]2O[C@H]2C[C@](C)(N)[C@H](O)[C@H](C)O2)Oc2ccc(cc2Cl)[C@H]1O [Vancomycin],Interpretation of results of the present method,[10],Sensitive
same,Interpretation of results of the present method,[10]; listed as vancomycin,sensitive
same,MIC,[9],1 µg/mL
same,Interpretation by Microdilution,"[9]; Patient two sample infected with E. faecalis, EUCAST breakpoints",Sensitive
Gentamicin,Interpretation of results of the present method,[1],Sensitive
same,Interpretation of results of the present method,[1]; listed as gentamicin,sensitive
same,Interpretation of results of the present method,[11],Resistant
same,Interpretation of results of the present method,[11]; listed as gentamicin,resistant
same,MIC reported by Microdilution,[2]; [15],0.5 µg/mL
same,Interpretation by Microdilution,[2]; [15],Sensitive
same,MIC reported by Microdilution,[6]; [18],>=32 μg/mL
same,Interpretation by Microdilution,"[6]; Patient two sample infected with P. aeruginosa, EUCAST breakpoints",Resistant
same,Interpretation by VITEK,[5]; [15],Sensitive
same,MIC reported by VITEK,[5]; [15],<=1 μg/mL
same,Interpretation by VITEK,[8]; [18],Resistant
same,MIC reported by VITEK,[8]; [18],>=16 μg/mL
glucose oxidase [GOx],H2O2 generated,[12]; 6 mU GOx,60.76 ± 7.6 µM
same,H2O2 generated,[12]; 10 mU GOx,113.46 ± 48.1 µM
same,H2O2 generated,[12]; 30 mU GOx,166.25 ± 5.3 µM
